Reference: patent US20200385331A1, “ALTERNATIVE KETONE ESTERS AND PRODUCTION PROCESSES THEREOF” (KetoneAid Inc., priority 2018, published 2020)

Experiments:
[1] = exposure to conditions mimicking the pH of the gut (beta hydroxy dehydration at low pH); type: physicochemical; conditions: for dehydration of exposed beta hydroxy groups relative to the salts or free acid of β-hydroxybutyrate: low pH conditions
Source text: The present invention generally relates to means of protecting or stabilizing the beta hydroxy group in β-hydroxybutyrate in order to prevent beta hydroxy dehydration in the presence of strong acid, such as found in the stomach. That reaction is a type of gastric degradation which yield compounds with no known metabolic therapy. […] Stabilizing the beta hydroxy group is possible by replacing the carboxylic acid functional group with an ester functional group, which prevents resonance between the two oxygen atoms by hydrogen and considerably stabilizes the beta hydroxy group reducing dehydration by as much as 40% compared to salts and the free acid of β-hydroxybutyrate. Protecting the beta hydroxy group is defined by replacing the beta hydroxy group with a second molecule of β-hydroxybutyrate forming an ester bond at the previous beta hydroxy functional group and yielding a dimer ester (DE) of β-hydroxybutyrate. Further described herein are similar therapeutic agents, compositions, and production processes thereof. […] The Dimer Esters protecting the beta hydroxy group are far less susceptible than any other identified compound to dehydration because only one beta hydroxy group is exposed of the two effective molecules of β-hydroxybutyrate This is disclosed in the prior art providing room for more advantageous compounds and formulations thereof as described herein. A third experiment was carried out exposing the salts and KME to conditions mimicking the pH of the gut.

[2] = healthy resting adults; cited from earlier work

| SMILES | dehydration of exposed beta hydroxy groups relative to the salts or free acid of β-hydroxybutyrate [1] | increase of myocardial output [2] [%] | dehydration on exposure to conditions mimicking the pH of the gut ([1]; third experiment, yields undesirable products) |
| --- | --- | --- | --- |
| CC(CCO)OC(=O)C[C@@H](C)O (stereo partly shown) [SKE] | dehydrate to a far lesser extent |  |  |
| CC(O)CC(=O)O (stereo not drawn) [beta hydroxybutyrate] |  | 50 |  |
| C[C@@H](O)CCOC(=O)C[C@@H](C)O [KME, (3R)-hydroxybutyl (3R)-hydroxybutyrate] | dehydrate to a far lesser extent |  | Rapid dehydration was observed |
